Legend:
sigma-1(σ1) receptor = target: T1, sigma-1(σ1) receptor (Mus musculus, UniProt O55242); assay: sigma-1 agonistic/antagonistic activity in mice; type: in vivo
T1 construct: from tissue; host or cells: whole animal (mice, oral administration)

[1] = neuropathic pain animal models; type: in vivo; conditions: appropriate animal models
GABA (B) receptors = assay: allosteric modulation of GABA (B) receptors
[2] = test system: N-methyl-D-aspartic acid (NMDA) glutamatergic receptors; assay: allosteric modulation of NMDA receptors; conditions: σ1 induced
mice [3] = assay: PTZ clonic convulsions and fatal tonic crises in mice; type: in vivo
GABA (A) receptors = assay: allosteric modulation of GABA (A) receptors
mice [4] = assay: Pentylenetetrazole (PTZ) induced behavioral effects and seizures in mice; type: in vivo; conditions: Fendiline 1.0 to 50 mg/kg (po), PTZ 10 to 70 mg/kg (ip)
Description: In good agreement with the above receptors affinities and its molecular pharmacological properties, Fendiline, at 1.0 to 50 mg/kg, (po), in mice antagonized all the behavioral effects (in mice) corresponding to the symptoms, in humans, announcing the development of the neurodegenerative and neurodevelopmental diseases, i.e., anxiety, fear, social disconnection, agressivity, compulsive reactions, hypermotility, stereotypic activity, pain, lethargy and seizures, appearing at various degrees according to the amplitude of the Glutamate/GABA imbalance and to the brain regions (Basal Ganglia, Hippocampus, Cortex) affected by the above imbalance. Indeed, all the above behavioral effects (obtained, in mice, by administration of the GABAergic antagonist Pentylenetetrazole (PTZ) at 10 to 70 mg/kg, intraperitoneal (ip): with 10 to 40 mg/kg (ip) giving fear, anxiety, social disconnection, and agressivity, hypermotility and stereotypies—the latter being better expressed by previous (reserpine induced) hypersensibilisation of the brain DA receptors—and seizures (obtained at 50 to 70 mg/kg (ip) of PTZ), were antagonized by Fendiline at 1.0 to 50 mg/kg (po).

[5] = test system: cholinergic muscarinic receptors; assay: modulation of muscarinic receptors; conditions: σ1 induced
sodium channels = assay: allosteric modulation of sodium channels; conditions: σ1 induced
mice [6] = assay: Maximal Electroshock tonic extension; conditions: mouse, in vivo

T1 sequence (O55242 whole entry): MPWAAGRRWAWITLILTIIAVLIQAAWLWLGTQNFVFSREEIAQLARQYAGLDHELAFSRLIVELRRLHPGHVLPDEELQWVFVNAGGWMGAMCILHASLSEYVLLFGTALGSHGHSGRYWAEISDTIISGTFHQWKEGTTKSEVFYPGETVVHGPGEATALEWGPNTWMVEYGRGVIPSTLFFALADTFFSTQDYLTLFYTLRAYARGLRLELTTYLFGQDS

## CC(NCCC(c1ccccc1)c1ccccc1)c1ccccc1 (stereo not shown) [Fendiline, 3,3-diphenyl-N-(1-phenylethyl) propan-1-amine]
sigma-1(σ1) receptor; 0,003 to 1.0 mg/kg per os (po), in mice
  sigma-1 activity at low doses: partial agonistic activity
sigma-1(σ1) receptor; more than 1.0 mg/kg (po) in mice
  sigma-1 activity at higher doses: antagonistic
sigma-1(σ1) receptor; mouse, in vivo
  sigma-1 intrinsic activity: low intrinsic activity
[1]
  effect against neuropathic pain: analgesic effect
GABA (B) receptors
  modulation of GABA (B) receptors: allosteric positive modulation
[2]
  modulation of NMDA glutamatergic receptors: negative allosteric modulations
Mice [3]; PTZ more than 80 mg/kg (ip), in mice
  protection against fatal tonic crises (tonic extensions), high doses of PTZ: did not protect
Mice [3]; mice
  protection against PTZ clonic convulsions: did not protect
GABA (A) receptors
  modulation of GABA (A) receptors: allosteric positive modulation
Mice [4]
  effect on PTZ induced behavioral effects (fear, anxiety, social disconnection, agressivity, hypermotility, stereotypies, seizures): antagonized
[5]
  modulation of cholinergic muscarinic receptors: discreet negative modulation
Sodium channels
  modulation of sodium channels: negative allosteric modulations
Mice [6]
  protection against fatal tonic crises (tonic extensions), Maximal Electrochock: did not protect
